According to US20050267182A1, “Urea derivatives as FLT-3 modulators” (Ambit Biosciences Corporation, priority 2003, published 2005):

Legend:
CS0005 = test: Cell Assay: CS0005; type: cell-based; conditions: cell assay code CS0005
MV4,11 cells = test: FLT3 assay using MV4,11 cells (cellular proliferation, MTS); type: cell-based, human; conditions: cell assay code CS0001
How it was run: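 MV4,11 AML cells, […] switch to DMEM/10% FBS overnight, plated at 10,000 cells/well and exposed to serially diluted compounds in duplicate for 3 days at 37° C., 5% CO2. Proliferation read by MTS added for 2 h.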

CS0002 = test: Cell Assay: CS0002; type: cell-based; conditions: cell assay code CS0002
FLT3 = molecular target: T1, FLT3 (Homo sapiens, UniProt P36888); test: Binding constant (Kd) measurement, phage-displayed kinase competition binding assay; conditions: for Binding Assay: FLT3(DKIN): FLT3(DKIN) construct; for Binding Assay: FLT3(JMminus): FLT3(JMminus) construct
T1 construct: FLT3(DKIN); made in house
T1 sequence (P36888 610-943 limits assumed): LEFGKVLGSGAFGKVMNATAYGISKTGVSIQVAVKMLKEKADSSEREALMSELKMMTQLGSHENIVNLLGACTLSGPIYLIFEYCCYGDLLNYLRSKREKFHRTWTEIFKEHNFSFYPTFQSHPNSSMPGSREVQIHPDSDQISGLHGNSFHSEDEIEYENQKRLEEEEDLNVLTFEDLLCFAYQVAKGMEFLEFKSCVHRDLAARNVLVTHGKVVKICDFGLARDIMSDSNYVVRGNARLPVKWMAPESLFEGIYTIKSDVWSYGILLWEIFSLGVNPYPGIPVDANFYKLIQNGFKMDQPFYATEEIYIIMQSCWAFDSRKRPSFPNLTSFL
Source text: Binding Constant (Kd) Measurements for Small-Molecule-Kinase Interactions
The term “ND” represents non-determined values.

Cell Assay: CS0005:IC50 (CS0005)	Cell Assay: CS0001:IC50 (MV4,11 cells)	IC50 (CS0002) [µM]	Binding Assay: FLT3(DKIN) (FLT3)	Cell Assay: CS0002:IC50 (CS0002)	Binding Assay: FLT3(JMminus) (FLT3)	Binding Assay: FLT3(JMplus) (FLT3; FLT3(JMplus) construct)	SMILES
+ + +	+ + + +	> 10	+ + + +	–	–	–	CC(C)(C)c1cc(NC(=O)Nc2ccc(OCc3ccc(F)cc3)cc2)no1 [Compound G35]
+ + + +	+ + + +	> 10	+ + + +	–	–	–	Cc1ccc(C(=O)Nc2ccc(NC(=O)Nc3cc(C(C)(C)C)on3)cc2)cc1 [Compound N92]
+ + +	+ + + +	–	+ + + +	+ +	–	–	CSc1ncc(Br)c(C(=O)Nc2ccc(NC(=O)Nc3cc(C(C)(C)C)on3)cc2)n1 [Compound N114]
+ + +	+ + + +	> 10	+ + + +	–	–	–	CC(C)(C)c1cc(NC(=O)Nc2ccc(NC(=O)c3csc(-c4ccncc4)n3)cc2)no1 [Compound N16]
+ + +	+ + + +	> 10	+ + + +	–	–	–	CC(C)(C)c1cc(NC(=O)Nc2ccc(-c3nc(-c4ccc(Cl)cc4)no3)cc2)no1 [Compound P7]
+ + + +	+ + + +	> 10	+ + + +	–	–	–	CC(C)(C)c1cc(NC(=O)Nc2ccc(NC(=O)/C=C/c3ccccc3Cl)cc2)no1 [Compound N40]
+ + + +	+ + + +	–	–	+ + +	+ + + +	–	CC(C)(C)c1cc(NC(=O)Nc2ccc(NC(=O)c3cn4c(n3)sc3ccccc34)cc2)no1 [Compound N73]
+ + + +	+ + + +	–	+ + + +	+ +	–	–	CC(C)(C)c1cc(NC(=O)Nc2ccc(NC(=O)c3cnc4ccccc4c3)cc2)no1 [Compound N108]
+ + + +	+ + + +	–	+ + + +	+ +	+ + + +	+ + +	CC(C)(C)c1cc(NC(=O)Nc2ccc(NC(=O)c3ncccc3O)cc2)no1 [Compound N134]
+ + + +	+ + + +	> 10	+ + + +	–	–	–	CC(C)(C)c1cc(NC(=O)Nc2ccc(NC(=O)c3ccc4sccc4c3)cc2)no1 [Compound N122]
+ + + +	+ + + +	> 10	+ + + +	–	–	–	CC(C)(C)c1cc(NC(=O)Nc2ccc(NC(=O)c3ccc4ncccc4c3)cc2)no1 [Compound N151]
+ + + +	+ + + +	–	+ + + +	+ +	–	–	CC(C)(C)c1cc(NC(=O)Nc2ccc(NC(=O)c3cn4nc(Cl)ccc4n3)cc2)no1 [Compound N9]
+ + + +	+ + + +	> 10	+ + + +	–	–	–	CC(C)(C)c1cc(NC(=O)Nc2ccc(NC(=O)c3cscn3)cc2)no1 [Compound N57]
+ + + +	+ + + +	> 10	+ + + +	–	–	–	CC(C)(C)c1cc(NC(=O)Nc2ccc(OCCCc3ccncc3)cc2)no1 [Compound G1, 1-(4-(3-(pyridin-4-yl)propoxy)phenyl)-3-(5-tert-butylisoxazol-3-yl)urea]
+ + + +	+ + + +	> 10	+ + + +	–	–	–	CC(C)(C)c1cc(NC(=O)Nc2ccc(NC(=O)c3cc4cccc5c4n(c3=O)CC5)cc2)no1 [Compound N60]
+ + + +	+ + + +	–	+ + + +	+ + +	–	–	CC(C)(C)c1cc(NC(=O)Nc2ccc(NC(=O)c3cccc4cccnc34)cc2)no1 [Compound N115]
+ + + +	+ + + +	> 10	+ + + +	–	–	–	CC(C)(C)c1cc(NC(=O)Nc2ccc(NC(=O)c3cnccn3)cc2)no1 [Compound N136]
+ + +	+ + + +	–	+ + + +	+ +	–	–	CC(C)(C)c1cc(NC(=O)Nc2ccc(OCCc3ccccc3F)cc2)no1 [Compound G25]

Cell Assay: CS0005:IC50 (CS0005)	Cell Assay: CS0001:IC50 (MV4,11 cells)	IC50 (CS0002) [µM]	Binding Assay: FLT3(DKIN) (FLT3)	Cell Assay: CS0002:IC50 (CS0002)	Binding Assay: FLT3(JMminus) (FLT3)	Binding Assay: FLT3(JMplus) (FLT3; FLT3(JMplus) construct)	SMILES
+ + + +	+ + + +	> 10	+ + + +	–	–	–	Cc1nc(-c2ccc(C(=O)Nc3ccc(NC(=O)Nc4cc(C(C)(C)C)on4)cc3)s2)cs1 [Compound N173]
+ + + +	+ + + +	–	–	+ +	+ + + +	–	CC(C)(C)c1cc(NC(=O)Nc2ccc(NC(=O)c3cc4ccccc4[nH]3)cc2)no1 [Compound N161]
+ + + +	+ + + +	–	+ + + +	+ +	–	–	COc1cc2ncnc(Nc3ccc(NC(=O)Nc4cc(C(C)(C)C)on4)cc3)c2cc1OC [Compound O5]
+ + + +	+ + + +	> 10	–	–	+ + + +	–	Cc1cnc(C(=O)Nc2ccc(NC(=O)Nc3cc(C(C)(C)C)on3)cc2)c(C(=O)O)n1 [Compound N160]
+ + + +	+ + + +	–	+ + + +	+ + +	–	–	Cn1nc(-c2ccccc2)c2cc(C(=O)Nc3ccc(NC(=O)Nc4cc(C(C)(C)C)on4)cc3)sc21 [Compound N5]
+ + + +	+ + + +	–	+ + + +	+ +	–	–	CC(C)(C)c1cc(NC(=O)Nc2ccc(Nc3nc(Cl)nc4[nH]cnc34)cc2)no1 [Compound O4]
+ + + +	+ + + +	–	+ + + +	+ +	–	–	COc1ccnc(Nc2ccc(C(=O)Nc3ccc(NC(=O)Nc4cc(C(C)(C)C)on4)cc3)cc2)n1 [Compound N51]
+ + +	+ + + +	> 10	+ + + +	–	–	–	CC(C)(C)c1cc(NC(=O)Nc2ccc(NC(=O)c3cccc(O)n3)cc2)no1 [Compound N131]
+ + + +	+ + + +	–	+ + + +	+ + +	–	–	CC(C)(C)c1cc(NC(=O)Nc2ccc(NC(=O)c3cc4cc(Br)ccc4s3)cc2)no1 [Compound N126]
+ + + +	+ + + +	–	–	+ +	+ + + +	–	COc1cc(C(=O)Nc2ccc(NC(=O)Nc3cc(C(C)(C)C)on3)cc2)nc(OC)n1 [Compound N162]
+ + +	+ + + +	–	+ + + +	+ +	–	–	COc1cc(C(=O)Nc2ccc(NC(=O)Nc3cc(C(C)(C)C)on3)cc2)nc2ccccc12 [Compound N137]
+ + +	+ + + +	–	+ + + +	+ +	–	–	CC(C)(C)c1cc(NC(=O)Nc2ccc(OCc3ccccc3Cl)cc2)no1 [Compound G10]
+ + + +	+ + + +	–	+ + + +	+ +	–	–	CC(C)(C)c1cc(NC(=O)Nc2ccc(OC/C=C/c3ccccc3Cl)cc2)no1 [Compound G26]
+ + + +	+ + + +	–	+ + + +	+ +	–	–	CC(C)(C)c1cc(NC(=O)Nc2ccc(CCc3ccc(N)cc3)cc2)no1 [Compound A3]
+ + + +	+ + + +	> 10	+ + + +	–	–	–	Cc1cnc(C(=O)Nc2ccc(NC(=O)Nc3cc(C(C)(C)C)on3)cc2)cn1 [Compound O2]
+ + + +	+ + + +	–	+ + + +	+ +	–	–	Cn1cc(C(=O)Nc2ccc(NC(=O)Nc3cc(C(C)(C)C)on3)cc2)c2ccccc21 [Compound N119]
+ + + +	+ + + +	> 10	+ + + +	–	–	–	COC(=O)c1ccc(C(=O)Nc2ccc(NC(=O)Nc3cc(C(C)(C)C)on3)cc2)nc1 [Compound N113]
+ + + +	+ + + +	–	–	+ +	+ + + +	–	Cc1ccc2[nH]c(C(=O)Nc3ccc(NC(=O)Nc4cc(C(C)(C)C)on4)cc3)cc2c1 [Compound N127]
